According to ChEMBL document CHEMBL1152405, “Bis-anthracenyl isoxazolyl amides have enhanced anticancer activity” (Bioorg Med Chem Lett, 2009):

Tests used:
Format in all cases: functional
NCI-H322M = assay: Growth inhibition of human NCI-H322M cells at 10 uM after 24 hrs by MTT assay relative to control; parameters: scale not given: the % may be the effect or the level left
HCC 2998 [1] = assay: Growth inhibition of human HCC2998 cells at 10 uM after 24 hrs by MTT assay relative to control; parameters: scale not given: the % may be the effect or the level left
HCT-116 = assay: Growth inhibition of human HCT116 cells at 10 uM after 24 hrs by MTT assay relative to control; parameters: scale not given: the % may be the effect or the level left
HT-29 = assay: Growth inhibition of human HT-29 cells at 10 uM after 24 hrs by MTT assay relative to control; parameters: scale not given: the % may be the effect or the level left
MDA-MB-435 = assay: Growth inhibition of human MDA-MB-435 cells at 10 uM after 24 hrs by MTT assay relative to control; parameters: scale not given: the % may be the effect or the level left
T47D = assay: Growth inhibition of human T47D cells at 10 uM after 24 hrs by MTT assay relative to control; parameters: scale not given: the % may be the effect or the level left
HL-60(TB) = assay: Growth inhibition of human HL-60(TB) cells at 10 uM after 24 hrs by MTT assay relative to control; parameters: scale not given: the % may be the effect or the level left
[2] = Growth inhibition of human […] cells at 10 uM after 24 hrs by MTT assay relative to control; parameters: scale not given: the % may be the effect or the level left
ACHN = assay: Growth inhibition of human ACHN cells at 10 uM after 24 hrs by MTT assay relative to control; parameters: scale not given: the % may be the effect or the level left
TK-10 [3] = assay: Growth inhibition of human TK10 cells at 10 uM after 24 hrs by MTT assay relative to control; parameters: scale not given: the % may be the effect or the level left
SK-MEL-28 = assay: Growth inhibition of human SK-MEL-28 cells at 10 uM after 24 hrs by MTT assay relative to control; parameters: scale not given: the % may be the effect or the level left
UACC-257 [4] = assay: Growth inhibition of human UACC257 cells at 10 uM after 24 hrs by MTT assay relative to control; parameters: scale not given: the % may be the effect or the level left
UACC-62 [5] = assay: Growth inhibition of human UACC62 cells at 10 uM after 24 hrs by MTT assay relative to control; parameters: scale not given: the % may be the effect or the level left
PC-3 = assay: Growth inhibition of human PC3 cells at 10 uM after 24 hrs by MTT assay relative to control; parameters: scale not given: the % may be the effect or the level left
SF-295 = assay: Growth inhibition of human SF295 cells at 10 uM after 24 hrs by MTT assay relative to control; parameters: scale not given: the % may be the effect or the level left
SF-539 = assay: Growth inhibition of human SF539 cells at 10 uM after 24 hrs by MTT assay relative to control; parameters: scale not given: the % may be the effect or the level left
CCRF-CEM = assay: Growth inhibition of human CCRF-CEM cells after 24 hrs by MTT assay
[6] = Growth inhibition of human […] cells after 24 hrs by MTT assay
A549 = assay: Growth inhibition of human A549 cells after 24 hrs by MTT assay; conditions: A549, 24 h
HCC 2998 [7] = assay: Growth inhibition of human HCC2998 cells after 24 hrs by MTT assay; conditions: HCC 2998, 24 h
HCT-15 = assay: Growth inhibition of human HCT15 cells after 24 hrs by MTT assay; conditions: HCT-15, 24 h
SW-620 = assay: Growth inhibition of human SW620 cells after 24 hrs by MTT assay; conditions: SW-620, 24 h
SNB-19 = assay: Growth inhibition of human SNB19 cells after 24 hrs by MTT assay; conditions: SNB-19, 24 h
Malme-3M = assay: Growth inhibition of human MALME-3M cells after 24 hrs by MTT assay
UACC-257 [8] = assay: Growth inhibition of human UACC257 cells after 24 hrs by MTT assay; conditions: UACC-257, 24 h
UACC-62 [9] = assay: Growth inhibition of human UACC62 cells after 24 hrs by MTT assay; conditions: UACC-62, 24 h
IGROV-1 = assay: Growth inhibition of human IGROV1 cells after 24 hrs by MTT assay; conditions: IGROV-1, 24 h
OVCAR-3 = assay: Growth inhibition of human OVCAR-3 cells after 24 hrs by MTT assay; conditions: OVCAR-3, 24 h
OVCAR-4 = assay: Growth inhibition of human OVCAR4 cells after 24 hrs by MTT assay; conditions: OVCAR-4, 24 h
OVCAR-5 = assay: Growth inhibition of human OVCAR5 cells after 24 hrs by MTT assay; conditions: OVCAR-5, 24 h
A498 = assay: Growth inhibition of human A498 cells after 24 hrs by MTT assay; conditions: A498, 24 h
TK-10 [10] = assay: Growth inhibition of human TK10 cells after 24 hrs by MTT assay; conditions: TK-10, 24 h
MDA-MB-468 = assay: Growth inhibition of human MDA-MB-468 cells after 24 hrs by MTT assay; conditions: MDA-MB-468, 24 h
RXF 393 = assay: Growth inhibition of human RXF393 cells at 10 uM after 24 hrs by MTT assay relative to control; parameters: scale not given: the % may be the effect or the level left
[11] = read-out: LC50 (the source's name)
[12] = read-out: pLC50 (the source's name) (converted)

With `Cc1onc(-c2c3ccccc3c(Cl)c3ccccc23)c1C(=O)Nc1cc(C(=O)NCCCN(C)CCCNC(=O)c2cc(NC(=O)c3c(-c4c5ccccc5c(Cl)c5ccccc45)noc3C)cn2C)n(C)c1` the Activity (NCI-H322M) was -97.3%, the Activity (HCC 2998 [1]) was -91.29% and the Activity (HCT-116) was -84.49%. It also gave an Activity (HT-29) of -91.6%, an Activity (MDA-MB-435) of -100% and an Activity (T47D) of -81.41%. The Activity (HL-60(TB)) was -94.78%, the Activity [2] was -100% and the Activity (ACHN) was -100%. The Activity (TK-10 [3]) was -89.17%, the Activity (SK-MEL-28) was -100% and the Activity (UACC-257 [4]) was -60.8%. For the same molecule, the Activity (UACC-62 [5]) was -100%, the Activity (PC-3) was -100% and the Activity (SF-295) was -75.66%. For the same molecule, the Activity (SF-539) was -100%, the TGI (CCRF-CEM) was 3550 nM and the GI50 (CCRF-CEM; read-out: GI50) was 1600 nM. For the same molecule, the CC50 (CCRF-CEM; [11]) was 7900 nM, the GI50 (CCRF-CEM; read-out: pGI50 (converted)) was 1580 nM and the CC50 (CCRF-CEM; [12]) was 7940 nM. It also gave a TGI [6] of 3380 nM, a GI50 ([6]; read-out: GI50) of 1390 nM and a CC50 [6, 11] of 8210 nM. The GI50 ([6]; read-out: pGI50 (converted)) was 1380 nM, the CC50 [6, 12] was 8130 nM and the TGI (A549) was 2850 nM. It also gave a GI50 (A549; read-out: GI50) of 1280 nM, a GI50 (A549; read-out: pGI50 (converted)) of 1290 nM and a TGI (HCC 2998 [7]) of 2940 nM. The GI50 (HCC 2998 [7]; read-out: GI50) was 1590 nM, the CC50 (HCC 2998 [7]; [11]) was 5420 nM and the GI50 (HCC 2998 [7]; read-out: pGI50 (converted)) was 1580 nM. The CC50 (HCC 2998 [7]; [12]) was 5370 nM, the TGI (HCT-15) was 3700 nM and the GI50 (HCT-15; read-out: GI50) was 1770 nM. For the same molecule, the GI50 (HCT-15; read-out: pGI50 (converted)) was 1780 nM, the TGI (SW-620) was 2750 nM and the GI50 (SW-620; read-out: GI50) was 1440 nM. For the same molecule, the CC50 (SW-620; [11]) was 5240 nM, the GI50 (SW-620; read-out: pGI50 (converted)) was 1450 nM and the CC50 (SW-620; [12]) was 5250 nM. It also gave a TGI (SNB-19) of 3500 nM, a GI50 (SNB-19; read-out: GI50) of 1560 nM and a CC50 (SNB-19; [11]) of 7860 nM. For the same molecule, the GI50 (SNB-19; read-out: pGI50 (converted)) was 1550 nM, the CC50 (SNB-19; [12]) was 7940 nM and the TGI (Malme-3M) was 4270 nM. It also gave a GI50 (Malme-3M; read-out: GI50) of 1930 nM, a GI50 (Malme-3M; read-out: pGI50 (converted)) of 1950 nM and a TGI (UACC-257 [8]) of 4630 nM. For the same molecule, the GI50 (UACC-257 [8]; read-out: GI50) was 2150 nM, the GI50 (UACC-257 [8]; read-out: pGI50 (converted)) was 2140 nM and the TGI (UACC-62 [9]) was 3440 nM. It also gave a GI50 (UACC-62 [9]; read-out: GI50) of 1700 nM, a GI50 (UACC-62 [9]; read-out: pGI50 (converted)) of 1700 nM and a TGI (IGROV-1) of 3260 nM. It also gave a GI50 (IGROV-1; read-out: GI50) of 1430 nM, a CC50 (IGROV-1; [11]) of 7420 nM and a GI50 (IGROV-1; read-out: pGI50 (converted)) of 1450 nM. It also gave a CC50 (IGROV-1; [12]) of 7410 nM, a TGI (OVCAR-3) of 2610 nM and a GI50 (OVCAR-3; read-out: GI50) of 1310 nM. The CC50 (OVCAR-3; [11]) was 5190 nM, the GI50 (OVCAR-3; read-out: pGI50 (converted)) was 1320 nM and the CC50 (OVCAR-3; [12]) was 5130 nM. The TGI (OVCAR-4) was 2880 nM, the GI50 (OVCAR-4; read-out: GI50) was 1490 nM and the CC50 (OVCAR-4; [11]) was 5560 nM. For the same molecule, the GI50 (OVCAR-4; read-out: pGI50 (converted)) was 1480 nM, the CC50 (OVCAR-4; [12]) was 5620 nM and the TGI (OVCAR-5) was 2780 nM. For the same molecule, the GI50 (OVCAR-5; read-out: GI50) was 1470 nM, the CC50 (OVCAR-5; [11]) was 5270 nM and the GI50 (OVCAR-5; read-out: pGI50 (converted)) was 1480 nM. The CC50 (OVCAR-5; [12]) was 5250 nM, the TGI (A498) was 17700 nM and the GI50 (A498; read-out: GI50) was 2630 nM. It also gave a CC50 (A498; [11]) of 44400 nM, a GI50 (A498; read-out: pGI50 (converted)) of 2630 nM and a CC50 (A498; [12]) of 44700 nM. The TGI (TK-10 [10]) was 4590 nM, the GI50 (TK-10 [10]; read-out: GI50) was 2150 nM and the CC50 (TK-10 [10]; [11]) was 9770 nM. It also gave a GI50 (TK-10 [10]; read-out: pGI50 (converted)) of 2140 nM, a CC50 (TK-10 [10]; [12]) of 9770 nM and a TGI (MDA-MB-468) of 2780 nM. For the same molecule, the GI50 (MDA-MB-468; read-out: GI50) was 1330 nM, the CC50 (MDA-MB-468; [11]) was 5810 nM and the GI50 (MDA-MB-468; read-out: pGI50 (converted)) was 1320 nM. The CC50 (MDA-MB-468; [12]) was 5750 nM and the Activity (RXF 393) was -61.83%.
